According to US20260217699A1, “BERBERINE TAUROURSODEOXYCHOLATE COMPOSITIONS AND METHODS THEREOF” (SHENZHEN HIGHTIDE BIOPHARMACEUTICAL LTD., priority 2023, published 2026):

Tests used:
[1] = test system: 6-OHDA Stereotactic Injection Induced PD Rats; test: Grip strength test; assay type: in vivo, Sprague-Dawley rats; settings: for Peak Grip Strength: Mean ± SEM, N=10, Model 558.334 ± 10.175, p<0.001 vs Model
From the text: The rats were respiratory anesthetized with isoflurane; the head was fixed to ensure that there was no movement and the brain surface was adjusted to be flat; the head was shaved, and a skin incision was made along the sagittal suture to expose the fontanel point; the glass electrode was positioned to the fontanel, and the axes of the coordinate monitor were zeroed to locate the brain areas of the SN and the Str based on the coordinates, in which the SN: AP=−5.0 mm; ML=−1.9 mm; DV=−8.5 mm, and Str: AP=+0.5 mm; ML=−3.0 mm; DV=−6.0 mm. […]; slowly inserted the needle into the localized area of SN and Str, waited for 10 min, and then administered the drug of 6-OHDA at a rate of […] for 10 min, and each animal was given […] of each of SN and Str area, and then the needle was slowly withdrawn after the drug was administered for 10 min, and the PD rat model was established.
The animal was placed on the platform with both forelimbs on the gripping pole, followed by grabbing the animal's tail, and pulling it straight back until the pulling force exceeded their gripping force. After the animals lose their grip, the preamplifier automatically recorded the maximum value of the pulling force. After the measurement was completed, the average of the maximum pulling force of each group of animals was calculated to evaluate the rat's locomotor muscle ability. Information on the grip strength test can also be found in the literature (Jeyasingham, et al. 2001 Brain Res Bull. 55(4):541-8).
In this study, 16 Sprague Dawley (SD) male rats 180g-220g were used to establish a PD model by stereotactic unilateral injection of 6-OHDA in the substantia nigra (SN) and striatum (Str) brain areas after one week of acclimatization feeding and were randomly divided into 2 groups of 8 rats each. […]
Experimental Methods: Seventy 180-220g SD male rats were selected and fed for one week for accumulation, and the PD model was established by stereotactic unilateral injection of 6-OHDA in the Substantia Nigra (SN) and Striatum (Str) regions and were randomly divided into five groups according to their body weights including Madopar group (Madopar, 50 mg/kg), BTUDC-L group (BTUDC, 100 mg/kg), BTUDC-M group (BTUDC, 500 mg/kg), and BTUDC-H group (BTUDC, 1000 mg/kg), with 10 animals in each group. […] At the end of the administration, the test articles were evaluated for tolerance in this model and in behavioral apomorphine—asymmetric rotation test, beam test, rotarod test and grip strength test, immunofluorescence staining (TH, Ibal), and cerebrospinal fluid inflammatory factor assays to evaluate the pharmacodynamic effects of the test articles. […]

[2] = test system: 6-OHDA Stereotactic Injection Induced PD Rats; test: Tolerability / general condition observation in PD rat model; assay type: in vivo, Sprague-Dawley rats
Protocol: In this study, 16 Sprague Dawley (SD) male rats 180g-220g were used to establish a PD model by stereotactic unilateral injection of 6-OHDA in the substantia nigra (SN) and striatum (Str) brain areas after one week of acclimatization feeding and were randomly divided into 2 groups of 8 rats each. One group was dosed with the test compound BTUDC 500 mg/kg (QD, p.o.) and the other group was the Model group, which was given an equal volume of 0.5% CMC-Na (QD, p.o.) as the test compound group. The animals were administered once a day for 21 consecutive days starting from the second day after modeling to evaluate the tolerability and therapeutic potential of BTUDC in the 6-OHDA PD model.
The body weight and food intake of the rats were collected and recorded every day, and the cage side observation for the animals was carried out.
Experimental Methods: Seventy 180-220g SD male rats were selected and fed for one week for accumulation, and the PD model was established by stereotactic unilateral injection of 6-OHDA in the Substantia Nigra (SN) and Striatum (Str) regions and were randomly divided into five groups according to their body weights including Madopar group (Madopar, 50 mg/kg), BTUDC-L group (BTUDC, 100 mg/kg), BTUDC-M group (BTUDC, 500 mg/kg), and BTUDC-H group (BTUDC, 1000 mg/kg), with 10 animals in each group. Another 10 SD male rats were taken for sham operation (only 4 μL of 0.9% NS containing 0.02% ascorbic acid was given to the SN and Str brain regions during modeling) as the Sham group. The drug was administered by gavage once daily continuously for 21 days starting on the second day of modeling (first day of dosing, D1). General observation was made during the dosing period. At the end of the administration, the test articles were evaluated for tolerance in this model and in behavioral apomorphine—asymmetric rotation test, beam test, rotarod test and grip strength test, immunofluorescence staining (TH, Ibal), and cerebrospinal fluid inflammatory factor assays to evaluate the pharmacodynamic effects of the test articles. Inflammatory factors tested included interleukin 6 (1L-6), inflammatory factor […], Tumor Necrosis Factor alpha (TNF-α), inflammatory assays were done in a total of 4 groups included Sham, Model, Madopar and BTUDC-H groups.
Dosing volume: 10 mL/kg • 1. General observation: During the period of drug administration, body weight, food intake test and cage side observation were conducted […]. • 2. Behavioral test: After 21 days of administration, behavioral test was carried out on the following day. • 3. Histochemical test: After the behavioral test, the cerebrospinal fluid from each animal (N=10) was collected, centrifuged to collect the supernatant, and stored at −80° C. for Elisa test (IL-6, IL-1β, TNF-α), then the animals in each group (N=5) were randomly selected to take the modeling side of the striatum for the detection of neurotransmitters, and the rest of them (N=5) were subjected to cardiac perfusion, which was performed by the process of perfusion, fixation, sedimentation and slicing for immunofluorescence staining and photographed, and the number or area of signals were counted by ImageJ software. • 4. Data analysis: After the data were summarized and counted, they were analyzed using SPSS data statistics software (one-way ANOVA, p<0.05 was considered a significant difference), and images were plotted according to the results of SPSS analysis using Graph Pad software. […]

[3] = up to 1000 mg/kg p.o. Qd 21 days

COc1ccc2cc3[n+](cc2c1OC)CCc1cc2c(cc1-3)OCO2.C[C@H](CCC(=O)NCCS(=O)(=O)[O-])[C@H]1CC[C@H]2[C@@H]3[C@@H](O)C[C@@H]4C[C@H](O)CC[C@]4(C)[C@H]3CC[C@]12C [BTUDC, Berberine tauroursodeoxycholate]
Grip Strength Test Peak grip strength(gf) ([1]; 500 mg/kg QD p.o. 21 days, Model 535.521 ± 15.5632, P < 0.001 vs Model): 757.479 ± 7.5044 gf | Peak Grip Strength ([1]; BTUDC-H 1000 mg/kg p.o. Qd 21 days): 767.101 ± 6.668 | Peak Grip Strength ([1]; BTUDC-L 100 mg/kg p.o. Qd 21 days): 711.616 ± 7.934 | Peak Grip Strength ([1]; BTUDC-M 500 mg/kg p.o. Qd 21 days): 737.000 ± 8.222 | tolerability in the PD rat model ([2]; 500 mg/kg QD p.o. 21 days): well tolerated | mortality, moribundity, abnormal animal state ([2]; 500 mg/kg QD p.o. 21 days, vs model group): no Test Compound-related mortality or moribundity nor abnormal animal state | body weight and food intake vs model control group ([2]; 500 mg/kg QD p.o. 21 days, whole study period): no obvious differences | body weight growth or food intake compared with other groups of animals [2, 3]: no obvious abnormalities | tolerability [2, 3]: well tolerated
